The IC50 is the midpoint of a concentration-inhibition curve.

The structures appear in SMILES notation.

In the assay the target is T1, BTK enzyme (recombinant full-length BTK, hBTK) (Homo sapiens, UniProt Q06187).
T1 construct: recombinant protein from baculovirus-transfected Sf9 cells: full-length BTK, 6HIS-tag cleaved; 6HIS (cleaved yes); made in house; host or cells: baculovirus-transfected Sf9 cells
T1 sequence (Q06187 whole entry): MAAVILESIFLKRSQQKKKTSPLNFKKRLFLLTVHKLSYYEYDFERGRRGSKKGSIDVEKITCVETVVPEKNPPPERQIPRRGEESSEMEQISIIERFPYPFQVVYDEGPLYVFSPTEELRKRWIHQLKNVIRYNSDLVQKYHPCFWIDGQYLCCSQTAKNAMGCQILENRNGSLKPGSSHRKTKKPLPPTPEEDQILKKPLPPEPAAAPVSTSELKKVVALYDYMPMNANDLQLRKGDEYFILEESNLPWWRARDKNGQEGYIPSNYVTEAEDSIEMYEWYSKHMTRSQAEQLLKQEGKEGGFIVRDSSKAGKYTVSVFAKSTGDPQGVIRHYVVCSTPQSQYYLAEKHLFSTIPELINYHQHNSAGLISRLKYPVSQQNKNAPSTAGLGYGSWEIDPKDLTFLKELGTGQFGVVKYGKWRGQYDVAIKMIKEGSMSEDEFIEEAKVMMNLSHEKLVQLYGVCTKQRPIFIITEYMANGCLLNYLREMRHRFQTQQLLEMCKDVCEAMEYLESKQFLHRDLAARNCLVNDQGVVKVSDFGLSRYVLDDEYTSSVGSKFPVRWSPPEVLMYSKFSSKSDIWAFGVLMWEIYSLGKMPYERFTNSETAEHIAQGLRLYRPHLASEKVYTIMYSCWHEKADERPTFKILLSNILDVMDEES
Nature of the assay: Btk enzyme activity assay, LANCE TR-FRET. The class given is biochemical. The conditions noted are these: 50 pM hBTK, 2 μM biotin-A5-peptide, 25 μM ATP; 60 minute compound & enzyme incubation; 120 minutes reaction; read-out: BTK binding potency IC50. (In general: TR-FRET usually uses a lanthanide donor and a delayed reading to cut background.)
As for `CC(C)(O)CN1CCC(c2ccc3c(c2)[nH]c2c(C(N)=O)cnc(N4CCC[C@@]5(CCNC5=O)C4)c23)CC1` [Example 72, 7-[1-(2-hydroxy-2-methylpropyl)piperidin-4-yl]-1-[(5R)-1-oxo-2,7-diazaspiro[4.5]dec-7-yl]-5H-pyrido[4,3-b]indole-4-carboxamide], the IC50 is 0.63 nM.
For `NC(=O)c1cnc(N2CCC[C@@]3(CCNC3=O)C2)c2c1[nH]c1cc(C3CCC(=O)NC3)ccc12` (stereo partly drawn) [Example 73, 1-[(5R)-1-oxo-2,7-diazaspiro[4.5]dec-7-yl]-7-(6-oxopiperidin-3-yl)-5H-pyrido[4,3-b]indole-4-carboxamide], the IC50 was determined as 0.74 nM.
Take `COc1ccc(-c2ccc3c(c2)[nH]c2c(C(N)=O)cnc(N4CCC[C@@]5(CCN(C)C5=O)C4)c23)cn1` [Example 74, 7-(6-methoxypyridin-3-yl)-1-[(5R)-2-methyl-1-oxo-2,7-diazaspiro[4.5]dec-7-yl]-5H-pyrido[4,3-b]indole-4-carboxamide]: the IC50 amounted to 8.9 nM.
On to `COc1cc(-c2ccc3c(c2)[nH]c2c(C(N)=O)cnc(N4CCC[C@@]5(CCN(C)C5=O)C4)c23)ccn1` [Example 75, 7-(2-methoxypyridin-4-yl)-1-[(5R)-2-methyl-1-oxo-2,7-diazaspiro[4.5]dec-7-yl]-5H-pyrido[4,3-b]indole-4-carboxamide], for which the IC50 turned out to be 9.5 nM.
For `CC(C)N1CCC(c2ccc3c(c2)[nH]c2c(C(N)=O)cnc(N4CCC[C@@]5(CCN(C)C5=O)C4)c23)CC1` [Example 76, 7-[1-(1-methylethyl)piperidin-4-yl]-1-[(5R)-2-methyl-1-oxo-2,7-diazaspiro[4.5]dec-7-yl]-5H-pyrido[4,3-b]indole-4-carboxamide] the value was 0.64 nM.
The figure for `CN1CC[C@@]2(CCCN(c3ncc(C(N)=O)c4[nH]c5cc(C6CCN(CC(C)(C)O)CC6)ccc5c34)C2)C1=O` [Example 77, 7-[1-(2-hydroxy-2-methylpropyl)piperidin-4-yl]-1-[(5R)-2-methyl-1-oxo-2,7-diazaspiro[4.5]dec-7-yl]-5H-pyrido[4,3-b]indole-4-carboxamide] is 0.55 nM.
For `CN1CC[C@@]2(CCCN(c3ncc(C(N)=O)c4[nH]c5cc(-c6ccc(C(O)C(F)(F)F)cc6)ccc5c34)C2)C1=O` (stereo partly drawn) [Example 78, 1-[(5R)-2-methyl-1-oxo-2,7-diazaspiro[4.5]dec-7-yl]-7-[4-(2,2,2-trifluoro-1-hydroxyethyl)phenyl]-5H-pyrido[4,3-b]indole-4-carboxamide], the IC50 stood at 59.9 nM.
The figure for `CN1CC[C@@]2(CCCN(c3ncc(C(N)=O)c4[nH]c5cc(-c6cccc(C(O)C(F)(F)F)c6)ccc5c34)C2)C1=O` (stereo partly drawn) [Example 79, 1-[(5R)-2-methyl-1-oxo-2,7-diazaspiro[4.5]dec-7-yl]-7-[3-(2,2,2-trifluoro-1-hydroxyethyl)phenyl]-5H-pyrido[4,3-b]indole-4-carboxamide] is 63 nM; for `Cc1noc(C)c1-c1ccc2c(c1)[nH]c1c(C(N)=O)cnc(N3CCC[C@@]4(CCN(C)C4=O)C3)c12` [Example 80, 7-(3,5-dimethylisoxazol-4-yl)-1-[(5R)-2-methyl-1-oxo-2,7-diazaspiro[4.5]dec-7-yl]-5H-pyrido[4,3-b]indole-4-carboxamide] it is 12.7 nM; for `COC(=O)CC1CCC(c2ccc3c(c2)[nH]c2c(C(N)=O)cnc(N4CCC[C@@]5(CCN(C)C5=O)C4)c23)CC1` (stereo partly drawn) [Example 81, methyl (4-{4-carbamoyl-1-[(5R)-2-methyl-1-oxo-2,7-diazaspiro[4.5]dec-7-yl]-5H-pyrido[4,3-b]indol-7-yl}cyclohexyl)acetate] it is 5.5 nM.
With `CN1CC[C@@]2(CCCN(c3ncc(C(N)=O)c4[nH]c5cc(C6CCC(CC(C)(C)O)CC6)ccc5c34)C2)C1=O` (stereo partly drawn) [Example 82, 7-[4-(2-hydroxy-2-methylpropyl)cyclohexyl]-1-[(5R)-2-methyl-1-oxo-2,7-diazaspiro[4.5]dec-7-yl]-5H-pyrido[4,3-b]indole-4-carboxamide], the IC50 amounted to 2.9 nM.
For `COC(=O)c1ccc2c(c1)[nH]c1c(C(N)=O)cnc(N3CCCC4(CCNC4=O)C3)c12` (stereo not drawn) [Example 83, Methyl 4-carbamoyl-1-(1-oxo-2,7-diazaspiro[4.5]decan-7-yl)-5H-pyrido[4,3-b]indole-7-carboxylate], the IC50 is 57.2 nM.
Regarding `NC(=O)c1cnc(N2CCCC3(CCNC3=O)C2)c2c1[nH]c1ccc(C(=O)O)cc12` (stereo not drawn) [Example 84, 4-carbamoyl-1-(1-oxo-2,7-diazaspiro[4.5]dec-7-yl)-5H-pyrido[4,3-b]indole-8-carboxylic acid], the IC50 worked out at 48.8 nM.
For `NC(=O)c1cnc(N2CCCC3(CCNC3=O)C2)c2c1[nH]c1cc(C(=O)O)ccc12` (stereo not drawn) [Example 85, 4-carbamoyl-1-(1-oxo-2,7-diazaspiro[4.5]dec-7-yl)-5H-pyrido[4,3-b]indole-7-carboxylic acid], the IC50 worked out at 448 nM.
For `NC(=O)c1cnc(N2CCCC3(C2)NCCNC3=O)c2c1[nH]c1ccccc12` (stereo not drawn) [Example 87, 1-(5-oxo-1,4,8-triazaspiro[5.5]undecan-8-yl)-5H-pyrido[4,3-b]indole-4-carboxamide] the value was 82.8 nM.

These data come from US20180141962A1, “AZACARBAZOLE BTK INHIBITORS” (MERCK SHARP & DOHME CORP., priority 2015, published 2018).
